Measured values published in publication PMC11206507, “Unraveling the Impact of Six Pentacyclic Triterpenes Regulating Metabolic Pathways on Lung Carcinoma Cells” (Pharmaceuticals, 2024).

Key:
Format in all cases: cell-based, human
[1] = tested on: DNA damage machinery in A549 cells; assay: DNA damage assay (anti-pH2AX / anti-pATM, flow cytometry); conditions: A549, IC50, 24 h, vs untreated cells
Experimental: We used flow cytometry to analyze several cellular mechanistic pathways in A549 cells after incubation with the triterpenes. In general, the cells were seeded in a 6-well plate at a density of 1 × 10^6 cells/mL and incubated for 24 h in supplemented DMEM. After 24 h, the A549 cells were treated with the triterpenes, following each manufacturer’s protocol. All of the following experiments were performed in a Muse® Cell Analyzer (EMD Millipore Corporation, Temecula, CA). The instrument was calibrated before each assay using the Muse® System Check Kit (Luminex MCH100101, Luminex Corporation). Each assay was run at least in two independent experiments. For each experiment, all samples were analyzed in triplicate in the instrument and the capillary line was washed after each sample run to avoid artifacts. In addition, to address the issue of cell doublets, we used the Muse® Cell Dispersal Reagent (Luminex Corporation) in all experiments. The concentration of the triterpenes in each assay was selected depending on the cellular concentration necessary to generate the gain signal in the instrument. This means that we attempted to select concentrations avoiding excessive cytotoxicity to accurately determine the respective signal from each assay.
Then, the A549 cells were scraped and centrifuged. The pellet was suspended in the assay buffer from the Luminex MCH200107 kit (Luminex Corporation). […]

STAT3 gene = assay: RT-qPCR gene expression of STAT3; conditions: A549, IC25, 24 h
Experimental: A549 cells were seeded into 6-well plates at a density of 1 × 10^6 cells/mL in supplemented DMEM. The cells were incubated with the triterpenes (IC25) for 24 h. Total RNA was extracted from the cells using the TRIzol reagent (Invitrogen Corporation, Carlsbad, CA, USA) according to the manufacturer’s instructions. The purity and concentration of RNA were assessed using a NanoDrop spectrophotometer (Thermo Fisher Scientific). cDNA was synthesized using the High-Capacity cDNA Reverse Transcription Kit (Applied Biosystems) according to the manufacturer’s instructions.
RT-qPCR was performed on a StepOnePlus® Real-Time PCR System (Thermo Fisher Scientific) using TaqMan Gene Expression Assays (Applied Biosystems) for PDL1 (CD274; Assay ID: Hs01125297_m1), ribonucleotide reductase (RR) M1 (Assay ID: Hs01040697_m1), and STAT3 (Assay ID: Hs01047586_g1). Each reaction consisted of 10 ng of cDNA, TaqMan Gene Expression Master Mix (Applied Biosystems), and TaqMan probes. The PCR cycling conditions were as follows: 95 °C for 10 min, followed by 40 cycles of 95 °C for 15 s and 60 °C for 60 s. The relative gene expression levels were calculated using the ΔΔCt method. GAPDH (Assay ID: Hs02758991_g1) was used as the endogenous control for normalization.
All RT-qPCR experiments were performed at least in triplicate. All data were expressed by plotting values with an average of four measurements for each treatment condition as the mean ± SD and analyzed with the software GraphPad Prism 9. Statistical analysis was performed using one-way analysis of variance (ANOVA) to compare the mean value of each treated type of cells versus the control (untreated cells). The statistical significance defined by the software for p values was **** < 0.0001, *** from 0.001 to 0.0001, ** from 0.001 to 0.01, * from 0.01 to 0.05, and non-significant (ns) ≥ 0.05.

A549 cells = assay: Total ROS production assay (DCF); conditions: A549, IC25 (CisPt 25 μM), 24 h
Experimental: The production of total ROS was determined using the 2′,7′-dichlorodihydrofluorescein diacetate (DCF) fluorescent dye. A549 cells were seeded in a concentration of 1 × 10^5 cells/mL into black 96-well plates with a clear bottom. After 24 h, the cells were incubated with the triterpenes (IC25) and controls for 24 h. Then, 50 μL of DCF (10 μM) was added to each well and they were incubated for 1 h at room temperature. Then, the fluorescence of each well was measured (Ex/Em = 485/530 nm) in the Tecan® M200 plate reader.
This experiment was performed in triplicate. All data were expressed by plotting the values as an average of three measurements for each treatment condition as the mean ± SD and analyzed with the software GraphPad Prism 9. Statistical analysis was performed using one-way analysis of variance (ANOVA) to compare the mean value of each treated type of cells versus the control (untreated cells). The statistical significance defined by the software for p values was **** < 0.0001, *** from 0.001 to 0.0001, ** from 0.001 to 0.01, * from 0.01 to 0.05, and non-significant (ns) ≥ 0.05.

Compound	Activation of the DNA damage machinery (in words) [1]	STAT3 gene expression (in words) (STAT3 gene)	Total ROS production (in words) (A549 cells)
C[C@H]1[C@H](C)CC[C@]2(C(=O)O)CC[C@]3(C)C(=CC[C@@H]4[C@@]5(C)CC[C@H](O)C(C)(C)[C@@H]5CC[C@]43C)[C@H]12 [UrA, ursolic acid]	caused the activation of the DNA damage machinery	–	–
C=C(C)[C@@H]1CC[C@]2(C(=O)O)CC[C@]3(C)[C@H](CC[C@@H]4[C@@]5(C)CC[C@H](O)C(C)(C)[C@@H]5CC[C@]43C)[C@@H]12 [BeA, betulinic acid]	–	superior in suppressing both genes	highest increase in total ROS
